Measurements reported in publication PMC7746945 (Neuro-Oncology, 2020).
“And” between values parts separate entries of the source, which are not always exact repeats. Identical values can stand only once. “Also recorded” adds a separate entry of the source.

Columns and labels:
[1] = Directional transport of [14C]-olaparib across MDCKII control (empty vector) monolayers; assay type: in vitro ADME, canine; conditions: dog, MDCK
Procedure: (§1) Canine kidney epithelial cells, stably expressing human MDR1 cDNA (Madin-Darby canine kidney type II [MDCKII]–MDR1 cells) or empty vector (MDCKII control), were used to model the intact BBB and determine permeability coefficients of (^14C)-olaparib in the presence of ketoconazole (25 μM). Whole body autoradiography was performed on male pigmented rats after single oral administration of [^14C]-olaparib (15 mg/kg; 5 MBq/kg). For autoradiography studies, animal care and experiments were carried out in accordance with AstraZeneca guidelines, which comply with UK standards. […] Xenograft experiments were performed under the relevant UK Home Office Project Licence and carried out with ethical approval from the University of Glasgow under the Animal (Scientific Procedures) Act 1986 and the EU directive 2010. Mice were maintained in individually ventilated cages with environmental enrichment and following the guidelines of ARRIVE (Animal Research: Reporting of In Vivo Experiments). […] Ratiometric t-test analysis determined SER confidence intervals and P-values. Further details are available in the Supplementary Material.
(§2) Apparent permeability coefficients were calculated for apical to basolateral (Papp a‒b) and basolateral to apical transport (Papp b‒a) as described in Methods. […] (B) Single oral doses of 15 mg/kg [14C]-olaparib were administered to male pigmented rats that were subsequently culled, sectioned, and subjected to whole body autoradiography at the timepoints shown. Radioactivity was excluded from the central nervous system in all animals at all timepoints. […] Blood, tumor, and contralateral (non tumor bearing) brain were harvested and snap frozen at the time points shown. […] Note different y-axis scales.
Monolayers were cultured in Dulbeco’s Modified Eagle Medium (DMEM) supplemented with glucose (4.5 g/L), 10% fetal calf serum, penicillin and streptomycin on semi-permeable filter inserts (Transwell plates 3401, Costar, Cambridge, MA) for three days. Under these conditions MDR1 localises to the apical plasma membrane. Monolayer integrity was assessed by transepithelial electrical resistance (TEER) measurement then inserts washed with Hank’s Balanced Salt Solution (HBSS) and transferred to 12-well plates containing HBSS (to measure apical to basal transport, a – b) or [14C]-olaparib diluted in HBSS (dose solution, to measure basal to apical transport, b – a). After addition of dose solution (a – b) or HBSS (b – a) to the apical chamber, samples of apical and basolateral compartments were collected immediately after dosing and after 120 minutes incubation. Three concentrations of 14C-olaparib were tested (0.1, 1 and 10 µM), each in three replicates. Radioactivity was determined by liquid scintillation counting. […] Transport of olaparib or reference substrate cimetidine was determined in MDCKII-BCRP cells. Apparent permeability coefficients (Papp) were calculated:
Efflux ratio = Papp b - a /a - b = Papp b - a / Papp a - b (mean)

recurrent GBM = assay: Efficacy: progression-free survival at 6 months (RANO); assay type: in vivo, human; conditions: olaparib with TMZ
Procedure: Secondary endpoints included PFS at 6 months (PFS-6, assessed radiologically using the RANO criteria) and radiological measurement of BBB permeability and perfusion by diffusion weighted and dynamic contrast-enhanced (DCE) MRI. […] Further details of the imaging protocol are provided in the Supplementary Material. Confidence intervals for PFS data were calculated using the exact binomial distribution.

[2] = Whole body autoradiography after single oral [14C]-olaparib; assay type: in vivo, pigmented rats; conditions: for radioactivity concentration, Blood / radioactivity concentration, Brain / radioactivity concentration, Choroid plexus / radioactivity concentration, Kidney cortex (outer) / radioactivity concentration, Large intestine mucosa / radioactivity concentration, Liver / radioactivity concentration, Meninges / radioactivity concentration, Pineal body / radioactivity concentration, Plasma / radioactivity concentration, Small intestine mucosa / radioactivity concentration, Spinal cord: rat, oral [14C]-olaparib 15 mg/kg
Procedure: as §1, §2
For autoradiography studies, animal care and experiments were carried out in accordance with AstraZeneca guidelines. Male and female pigmented rats and female BALB/c nu/nu mice bearing subcutaneous HCT-116 colorectal carcinoma xenografts were treated with 15 mg/kg [^14C]-olaparib. Animals were culled by asphyxiation, carcasses frozen in hexane and solid carbon dioxide then subjected to whole body autoradiography. Radioactivity concentrations in tissue were quantified from whole-body autoradiograms using a validated image analysis system.

[3] = of 16 RP2D patients, olaparib with TMZ

Question: What does the source list for `O=C(c1cc(Cc2n[nH]c(=O)c3ccccc23)ccc1F)N1CCN(C(=O)C2CC2)CC1` [olaparib, 4-[3-(4-cyclopropanecarbonylpiperazine-1-carbonyl)-4-fluorobenzyl]-2H-phthalazin-1-one]?
Answer: Papp A→B at 120 min, 1 µM [1]: 1.66 ×10⁻⁶ cm/s; Papp A→B at 120 min, 3 µM [1]: 2.23 ×10⁻⁶ cm/s; Papp A→B at 120 min, 10 µM [1]: 2.46 ×10⁻⁶ cm/s; Papp B→A at 120 min, 1 µM [1]: 32 ×10⁻⁶ cm/s; Papp B→A at 120 min, 3 µM [1]: 29.7 ×10⁻⁶ cm/s; Papp B→A at 120 min, 10 µM [1]: 28.1 ×10⁻⁶ cm/s; patients progression free at 6 months (PFS-6) (recurrent GBM; evaluable patients): 36% and 39%; number of patients progression free at 6 months (recurrent GBM; of 36 patients evaluable for efficacy): 14; patients needing dose reductions for neutropenia (grade 3) and thrombocytopenia (grade 2) (cohort 1, olaparib with TMZ): 2; DLT (cohort 3, olaparib with TMZ, one DLT): grade 3 vomiting; toxicity and tolerability of schedule (cohort 4, olaparib with TMZ, one patient): toxic death associated with pancytopenia, septic shock, and renal failure; grade 2 nausea, patients [3]: 1; grade 2 pruritus, patients [3]: 1; grade 2 vomiting, patients [3]: 1; grade 3–4 anemia, patients [3]: 3; grade 3–4 lymphopenia, patients [3]: 7; grade 3–4 neutropenia, patients [3]: 2; grade 3–4 thrombocytopenia, patients [3]: 4; patients with grade 3–4 hematological toxicities [3]: 7; effect on TMZ-related hematological toxicity (olaparib with TMZ): exacerbated; MTD / RP2D, olaparib dose (once daily, days 1–3 per week, with TMZ 75 mg/m^2 daily for 42 days): 150 mg; radioactivity in brain or spinal cord (brain penetration) ([2]; male and female rats, single [14C]-olaparib 15 mg/kg, 5 MBq/kg, any timepoint): no brain penetration; also recorded: undetectable; radioactivity concentration, Blood ([2]; 1 hr): 2.44 nmol equivalents of olaparib per gram of tissue; radioactivity concentration, Brain ([2]; 1 hr): BLQ; radioactivity concentration, Choroid plexus ([2]; 1 hr): 0.618 nmol equivalents of olaparib per gram of tissue; radioactivity concentration, Kidney cortex (outer) ([2]; 1 hr): 9.52 nmol equivalents of olaparib per gram of tissue; radioactivity concentration, Large intestine mucosa ([2]; 1 hr): 12.1 nmol equivalents of olaparib per gram of tissue; radioactivity concentration, Liver ([2]; 1 hr): 112 nmol equivalents of olaparib per gram of tissue; radioactivity concentration, Meninges ([2]; 1 hr): 0.847 nmol equivalents of olaparib per gram of tissue; radioactivity concentration, Pineal body ([2]; 1 hr): 2.13 nmol equivalents of olaparib per gram of tissue; radioactivity concentration, Plasma ([2]; 1 hr): 9.69 nmol equivalents of olaparib per gram of tissue; radioactivity concentration, Small intestine mucosa ([2]; 1 hr): 60.5 nmol equivalents of olaparib per gram of tissue; radioactivity concentration, Spinal cord ([2]; 1 hr): BLQ; radioactivity concentration, Blood ([2]; 4 hr): 0.729 nmol equivalents of olaparib per gram of tissue; radioactivity concentration, Brain ([2]; 4 hr): BLQ; radioactivity concentration, Choroid plexus ([2]; 4 hr): 0.228 nmol equivalents of olaparib per gram of tissue; radioactivity concentration, Kidney cortex (outer) ([2]; 4 hr): 3.16 nmol equivalents of olaparib per gram of tissue; radioactivity concentration, Large intestine mucosa ([2]; 4 hr): 11.1 nmol equivalents of olaparib per gram of tissue; radioactivity concentration, Liver ([2]; 4 hr): 49.3 nmol equivalents of olaparib per gram of tissue; radioactivity concentration, Meninges ([2]; 4 hr): 0.500 nmol equivalents of olaparib per gram of tissue; radioactivity concentration, Pineal body ([2]; 4 hr): 0.318 nmol equivalents of olaparib per gram of tissue; radioactivity concentration, Plasma ([2]; 4 hr): 2.11 nmol equivalents of olaparib per gram of tissue; radioactivity concentration, Small intestine mucosa ([2]; 4 hr): 19.1 nmol equivalents of olaparib per gram of tissue; radioactivity concentration, Spinal cord ([2]; 4 hr): BLQ; radioactivity concentration, Blood ([2]; 8 hr): 0.171 nmol equivalents of olaparib per gram of tissue; radioactivity concentration, Brain ([2]; 8 hr): BLQ; radioactivity concentration, Choroid plexus ([2]; 8 hr): BLQ; radioactivity concentration, Kidney cortex (outer) ([2]; 8 hr): 1.49 nmol equivalents of olaparib per gram of tissue; radioactivity concentration, Large intestine mucosa ([2]; 8 hr): 39.8 nmol equivalents of olaparib per gram of tissue; radioactivity concentration, Liver ([2]; 8 hr): 14.7 nmol equivalents of olaparib per gram of tissue; radioactivity concentration, Meninges ([2]; 8 hr): BLQ; radioactivity concentration, Pineal body ([2]; 8 hr): 0.248 nmol equivalents of olaparib per gram of tissue; radioactivity concentration, Plasma ([2]; 8 hr): 0.180 nmol equivalents of olaparib per gram of tissue; radioactivity concentration, Small intestine mucosa ([2]; 8 hr): 7.93 nmol equivalents of olaparib per gram of tissue; radioactivity concentration, Spinal cord ([2]; 8 hr): BLQ; radioactivity concentration, Blood ([2]; 24 hr): BLQ^3; radioactivity concentration, Brain ([2]; 24 hr): BLQ; radioactivity concentration, Choroid plexus ([2]; 24 hr): BLQ; radioactivity concentration, Kidney cortex (outer) ([2]; 24 hr): 0.248 nmol equivalents of olaparib per gram of tissue; radioactivity concentration, Large intestine mucosa ([2]; 24 hr): 2.10 nmol equivalents of olaparib per gram of tissue; radioactivity concentration, Liver ([2]; 24 hr): 2.23 nmol equivalents of olaparib per gram of tissue; radioactivity concentration, Meninges ([2]; 24 hr): BLQ; radioactivity concentration, Pineal body ([2]; 24 hr): BLQ; radioactivity concentration, Plasma ([2]; 24 hr): 0.046 nmol equivalents of olaparib per gram of tissue; radioactivity concentration, Small intestine mucosa ([2]; 24 hr): 1.19 nmol equivalents of olaparib per gram of tissue; radioactivity concentration, Spinal cord ([2]; 24 hr): BLQ; radioactivity concentration, Blood ([2]; 72 hr): BLQ; radioactivity concentration, Brain ([2]; 72 hr): BLQ; radioactivity concentration, Choroid plexus ([2]; 72 hr): BLQ; radioactivity concentration, Kidney cortex (outer) ([2]; 72 hr): 0.202 nmol equivalents of olaparib per gram of tissue; radioactivity concentration, Large intestine mucosa ([2]; 72 hr): BLQ; radioactivity concentration, Liver ([2]; 72 hr): 0.604 nmol equivalents of olaparib per gram of tissue; radioactivity concentration, Meninges ([2]; 72 hr): BLQ; radioactivity concentration, Pineal body ([2]; 72 hr): BLQ; radioactivity concentration, Plasma ([2]; 72 hr): 0.009 nmol equivalents of olaparib per gram of tissue; radioactivity concentration, Small intestine mucosa ([2]; 72 hr): BLQ; radioactivity concentration, Spinal cord ([2]; 72 hr): BLQ; radioactivity concentration, Blood ([2]; 168 hr): BLQ; radioactivity concentration, Brain ([2]; 168 hr): BLQ; radioactivity concentration, Choroid plexus ([2]; 168 hr): BLQ; radioactivity concentration, Kidney cortex (outer) ([2]; 168 hr): BLQ; radioactivity concentration, Large intestine mucosa ([2]; 168 hr): BLQ; radioactivity concentration, Liver ([2]; 168 hr): 0.164 nmol equivalents of olaparib per gram of tissue; radioactivity concentration, Meninges ([2]; 168 hr): BLQ; radioactivity concentration, Pineal body ([2]; 168 hr): BLQ; radioactivity concentration, Small intestine mucosa ([2]; 168 hr): BLQ; radioactivity concentration, Spinal cord ([2]; 168 hr): BLQ
